Test results published in paper PMC8508980, “Design, Synthesis and Anticancer Profile of New 4-(1H-benzo[d]imidazol-1-yl)pyrimidin-2-amine-Linked Sulfonamide Derivatives with V600EBRAF Inhibitory Effect” (International Journal of Molecular Sciences, 2021).

Key:
Test in all cases: NCI 60 cell line screen
Format in all cases: cell-based
A498 = settings: Homo sapiens; A498, Renal Cancer; read-out: Percent growth
Method: (§1) Anticancer profiling over a panel of 60 cancer cell lines was carried out at the National Cancer Institute (NCI), Bethesda, Maryland, USA, https://dtp.cancer.gov/discovery_development/nci-60/methodology.htm (Last visit 22 September 2021), using the standard procedure (detailed procedure is located in the Supplementary Information page 50 s).
(§2) NCI standard procedure for 60 cell lines assay
(§3) The human tumor cell lines of the cancer screening panel are grown in RPMI 1640 mediu m containing 5% fetal bovine serum and 2 mM L-glutamine. For a typical screening experiment, cells are inoculated into 96 well microtiter plates in 100 μL at plating densities ranging from 5,000 to 40,000 cells/well depending on the doubling time of individual cell lines. After cell inoculation, the microtiter plates are incubated at 37° C, 5 % CO2, 95 % air and 100 % relative humidity for 24 h prior to addition of experimental drugs.
(§4) After 24 h, two plates of each cell line are fixed in situ with TCA, to represent a measurement of the cell population for each cell line at the time of drug addition (Tz). Experimental drugs are solubilized in dimethyl sulfoxide at 400-fold the desired final maximum test concentration (10 µM) and stored frozen prior to use. At the time of drug addition, an aliquot of frozen concentrate is thawed and diluted to twice the desired final maximum test concentration with co mp lete medium containing 50 μg/ml gentamicin. Additional four, 10-fold or ½ log serial dilutions are made to provide a total of five drug concentrations plus control. Aliquots of 100 μl of these different drug dilutions are added to the appropriate microtiter wells already containing 100 μl of medium, resulting in the required final drug concentrations.
(§5) Following drug addition, the plates are incubated for an additional 48 h at 37°C, 5 % CO2, 95 % air, and 100 % relative humidity. For adherent cells, the assay is terminated by the addition of cold TCA. Cells are fixed in situ by the gentle addition of 50 μl of cold 50 % (w/v) TCA (final concentration, 10 % TCA) and incubated for 60 minutes at 4°C. The supernatant is discarded, and the plates are washed five times with tap water and air dried. Sulforhodamine B (SRB) solution (100 μl) at 0.4 % (w/v) in 1 % acetic acid is added to each well, and plates are incubated for 10 minutes at room temperature. After staining, unbound dye is removed by washing five times with 1 % acetic acid and the plates are air dried. Bound stain is subsequently solubilized with 10 mM trizma base, and the absorbance is read on an automated plate reader at a wavelength of 515 nm. For suspension cells, the methodology is the same except that the assay is terminated by fixing settled cells at the bottom of the wells by g ently adding 50 μl of 80 % TCA (final concentration, 16 % TCA). Using the seven absorbance measurements [time zero, (Tz), control growth, (C), and test growth in the presence of drug at the five concentration levels (Ti)], the percentage growth is calculated at each of the drug concentrations levels. Percentage growth inhibition is calculated as:
(§6) [(Ti-Tz)/(C-Tz)] x 100 for concentrations for which Ti>/=Tz
(§7) [(Ti-Tz)/Tz] x 100 for concentrations for which Ti<Tz.
(§8) Three dose response parameters are calculated for each experimental agent. Growth inhibition of […]
(§9) resulting in a 50% reduction in the net protein increase (as measured by SRB staining) in control cells during the drug incubation. The drug concentration resulting in total growth inhibition […]
(§10) (TGI) is calculated from Ti = Tz.

A549/ATCC = settings: Homo sapiens, Non-Small Cell Lung Cancer, read-out: Percent growth
Method: as §1, §2, §3, §4, §5, §6, §7, §8, §9, §10

ACHN = settings: Homo sapiens, Renal Cancer, read-out: Percent growth
Method: as §1, §2, §3, §4, §5, §6, §7, §8, §9, §10

BT-549 = settings: Homo sapiens; BT-549, Breast Cancer; read-out: Percent growth
Method: as §1, §2, §3, §4, §5, §6, §7, §8, §9, §10

CCRF-CEM = settings: Homo sapiens, Leukemia, read-out: Percent growth
Method: as §1, §2, §3, §4, §5, §6, §7, §8, §9, §10

COLO 205 = settings: Homo sapiens; COLO 205, Colon Cancer; read-out: Percent growth
Method: as §1, §2, §3, §4, §5, §6, §7, §8, §9, §10

HCC-2998 = settings: Homo sapiens; HCC-2998, Colon Cancer; read-out: Percent growth
Method: as §1, §2, §3, §4, §5, §6, §7, §8, §9, §10

HL-60(TB) = settings: Homo sapiens, Leukemia, read-out: Percent growth
Method: as §1, §2, §3, §4, §5, §6, §7, §8, §9, §10

HOP-62 = settings: Homo sapiens; HOP-62, Non-Small Cell Lung Cancer; read-out: Percent growth
Method: as §1, §2, §3, §4, §5, §6, §7, §8, §9, §10

HS 578T = settings: Homo sapiens, Breast Cancer, read-out: Percent growth
Method: as §1, §2, §3, §4, §5, §6, §7, §8, §9, §10

IGROV1 = settings: Homo sapiens, IGROV-1; IGROV1, Ovarian Cancer; read-out: Percent growth
Method: as §1, §2, §3, §4, §5, §6, §7, §8, §9, §10

LOX IMVI = settings: Homo sapiens, Melanoma, read-out: Percent growth
Method: as §1, §2, §3, §4, §5, §6, §7, §8, §9, §10

MALME-3M = settings: Homo sapiens, Melanoma, read-out: Percent growth
Method: as §1, §2, §3, §4, §5, §6, §7, §8, §9, §10

MCF7 = settings: Homo sapiens; MCF7, Breast Cancer; read-out: Percent growth
Method: as §1, §2, §3, §4, §5, §6, §7, §8, §9, §10

MDA-MB-231/ATCC = settings: Homo sapiens, Breast Cancer, read-out: Percent growth
Method: as §1, §2, §3, §4, §5, §6, §7, §8, §9, §10

NCI-H322M = settings: Homo sapiens, Non-Small Cell Lung Cancer, read-out: Percent growth
Method: as §1, §2, §3, §4, §5, §6, §7, §8, §9, §10

OVCAR-5 = settings: Homo sapiens; OVCAR-5, Ovarian Cancer; read-out: Percent growth
Method: as §1, §2, §3, §4, §5, §6, §7, §8, §9, §10

OVCAR-8 = settings: Homo sapiens; OVCAR-8, Ovarian Cancer; read-out: Percent growth
Method: as §1, §2, §3, §4, §5, §6, §7, §8, §9, §10

SF-539 = settings: Homo sapiens; SF-539, CNS-Cancer; read-out: Percent growth
Method: as §1, §2, §3, §4, §5, §6, §7, §8, §9, §10

SK-MEL-2 = settings: Homo sapiens; SK-MEL-2, Melanoma; read-out: Percent growth
Method: as §1, §2, §3, §4, §5, §6, §7, §8, §9, §10

SN12C = settings: Homo sapiens, Renal Cancer, read-out: Percent growth
Method: as §1, §2, §3, §4, §5, §6, §7, §8, §9, §10

SW-620 = settings: Homo sapiens; SW-620, Colon Cancer; read-out: Percent growth
Method: as §1, §2, §3, §4, §5, §6, §7, §8, §9, §10

TK-10 = settings: Homo sapiens; TK-10, Renal Cancer; read-out: Percent growth
Method: as §1, §2, §3, §4, §5, §6, §7, §8, §9, §10

UACC-62 = settings: Homo sapiens; UACC-62, Melanoma; read-out: Percent growth
Method: as §1, §2, §3, §4, §5, §6, §7, §8, §9, §10

Row | SMILES | activity at 10 µM (A498) [%] | activity at 10 µM (A549/ATCC) [%] | activity at 10 µM (ACHN) [%] | activity at 10 µM (BT-549) [%] | activity at 10 µM (CCRF-CEM) [%] | activity at 10 µM (COLO 205) [%] | activity at 10 µM (HCC-2998) [%] | activity at 10 µM (HL-60(TB)) [%] | activity at 10 µM (HOP-62) [%] | activity at 10 µM (HS 578T) [%] | activity at 10 µM (IGROV1) [%] | activity at 10 µM (LOX IMVI) [%] | activity at 10 µM (MALME-3M) [%] | activity at 10 µM (MCF7) [%] | activity at 10 µM (MDA-MB-231/ATCC) [%] | activity at 10 µM (NCI-H322M) [%] | activity at 10 µM (OVCAR-5) [%] | activity at 10 µM (OVCAR-8) [%] | activity at 10 µM (SF-539) [%] | activity at 10 µM (SK-MEL-2) [%] | further results
1 | O=S(=O)(NCCCNc1nccc(-n2cnc3ccccc32)n1)c1ccc(Br)cc1 [12k, N-(3-((4-(1H-benzo [d]imidazol-1-yl)pyrimidin-2-yl)amino)propyl)-4-bromo benzenesulfonamide] | 77.2 | 95 | 90.4 | 80.8 | 83 | 108 | 112 | 99.8 | 107 | 90 | 101 | 94.6 | 104 | 86.7 | 83.6 | 103 | 97 | 82.5 | 85.2 | 105 | activity at 10 µM (SN12C): 89.2%; activity at 10 µM (SW-620): 106%; activity at 10 µM (TK-10): 97.8%; activity at 10 µM (UACC-62): 77.3%
2 | O=S(=O)(NCCCNc1nccc(-n2cnc3ccccc32)n1)c1ccccc1 [12h, N-(3-((4-(1H-benzo [d]imidazol-1-yl)pyrimidin-2-yl)amino)propyl)benzenesulfonamide] | 78.4 | 97.6 | 95.7 | 96.5 | 88.1 | 102 | 107 | 104 | 96.9 | 93.7 | 107 | 91.7 | 108 | 87.7 | 92.4 | 109 | 99.1 | 84 | 89.4 | 108 | activity at 10 µM (SN12C): 94.3%; activity at 10 µM (SW-620): 107%; activity at 10 µM (TK-10): 103%; activity at 10 µM (UACC-62): 85%
3 | Cc1ccc(S(=O)(=O)NCCNc2nccc(-n3cnc4ccccc43)n2)cc1 [12g, N-(2-((4-(1H-benzo [d]imidazol-1-yl)pyrimidin-2-yl)amino)ethyl)-4-methyl benzenesulfonamide] | 62.1 | 82.4 | 73 | 63.7 | 69.5 | 86.8 | 93.1 | 91.2 | 69.6 | 64.2 | 75.2 | 75.2 | 90.2 | 67.9 | 62.5 | 94.4 | 87.8 | 79.8 | 79.7 | 87.7 | activity at 10 µM (SN12C): 79%; activity at 10 µM (SW-620): 90.8%; activity at 10 µM (TK-10): 83.7%; activity at 10 µM (UACC-62): 53%
4 | O=S(=O)(NCCCNc1nccc(-n2cnc3ccccc32)n1)c1cccc2ccccc12 [12n, N-(3-((4-(1H-benzo [d]imidazol-1-yl)pyrimidin-2-yl)amino)propyl)naphthalene-1-sulfonamide] | 72.1 | 86.3 | 87.1 | 88.2 | 70.9 | 96.4 | 112 | 101 | 87.1 | 78.3 | 98.1 | 85.6 | 98.4 | 83.4 | 83.1 | 103 | 96.3 | 82.5 | 87.9 | 97.8 | activity at 10 µM (SN12C): 85.9%; activity at 10 µM (SW-620): 106%; activity at 10 µM (TK-10): 95.7%; activity at 10 µM (UACC-62): 62%
5 | O=S(=O)(NCCCNc1nccc(-n2cnc3ccccc32)n1)c1ccc(C(F)(F)F)cc1 [12l, N-(3-((4-(1H-benzo [d]imidazol-1-yl)pyrimidin-2-yl)amino)propyl)-4-(trifluoromethyl) benzenesulfonamide] | 55.3 | 79 | 79 | 62.9 | 51.9 | 78.2 | 84.8 | 89 | 77.3 | 58.6 | 74.3 | 72.3 | 94 | 65.5 | 68.7 | 89.9 | 87.2 | 60 | 74.5 | 91 | activity at 10 µM (SN12C): 80.5%; activity at 10 µM (SW-620): 99.5%; activity at 10 µM (TK-10): 81.5%; activity at 10 µM (UACC-62): 64.1%
6 | O=S(=O)(NCCNc1nccc(-n2cnc3ccccc32)n1)c1ccccc1 [12a, N-(2-((4-(1H-benzo [d]imidazol-1-yl)pyrimidin-2-yl)amino)ethyl)benzenesulfonamide] | 88.6 | 104 | 94.2 | 106 | 96 | 101 | 106 | 113 | 90.7 | 93.5 | 89.9 | 95 | 101 | 89.3 | 87.6 | 94.9 | 92.5 | 98 | 96.1 | 115 | activity at 10 µM (SN12C): 85.1%; activity at 10 µM (SW-620): 112%; activity at 10 µM (TK-10): 104%; activity at 10 µM (UACC-62): 78.3%
